Source: patent publication US20240156832A1, “METHODS OF METABOLIZING METOPIMAZINE AND ITS SALTS” (Neurogastrx, Inc., priority 2020, published 2024)

What was measured:
[1] = Incubation of MPZ in human liver S9; format: in vitro ADME
Method: Initial experiment was conducted with S9 fractions from liver and intestine to assess the role of liver and intestinal enzymes in the metabolism of MPZ. The reaction mixture contained 2.5 μM MPZ, pooled human liver or intestine S9 fraction (1 mg/mL S9 protein), 100 mM KPi buffer (pH 7.4). The reaction mixture was pre-incubated for 3-5 min at 37° C. in a humidified incubator filled with 5% CO2 followed by the addition of NADPH (1 mM) to initiate the reaction. The reaction was incubated for 0 and 60 min. The total percentage of organic solvent in incubation mixture was <0.1%. The reactions were terminated by the addition of sample mixture of acetonitrile and ethanol (90:10, v/v). The positive control substrate, 7-EC, was incubated in triplicate in an identical manner as MPZ for S9 fractions.

[2] = Rat PK study; format: in vivo, Sprague Dawley rats
Method: The pharmacokinetics of metopimazine (parent) and metopimazine acid (metabolite) were evaluated in male and female Sprague Dawley rats following a single oral dose of 45 mg/kg metopimazine (free base). Three animals per sex in each dose group were sampled at each timepoint after administration (0.25, 0.5, 1, 2, 4, 8, 12, and 24 hours). The rats (Rattus norvegicus) were obtained from Envigo RMS, Inc. (Indianapolis, IN) and were 2 months old. Animals were weighed prior to each dose administration for the purpose of dose calculation. Whole venous blood samples of approximately 0.5 mL were collected from a peripheral vein of animals for determination of exposure to metopimazine and metopimazine acid. Three animals per sex were sampled at each timepoint. Samples were collected in tubes containing K2EDTA with protease inhibitor cocktail (Sigma, #P8340, at ratio 1:100) and placed on ice until processed for plasma by centrifugation under refrigeration for at least ten minutes at 3000 rpm. After centrifugation, supernatant was removed and stored frozen in a −70° C. freezer until analyzed by LC-MS/MS.
(§1) An MRM LC-MS/MS method was developed for MPZ and metopimazine acid (MPZA) in rat, dog, and human plasma. The method was run in reverse phase in positive ion mode. […] D6-isotopically labeled internal standards were used for each analyte. The following m/z transitions were monitored: metopimazine 446.3→141.1 and metopimazine acid 447.2→142.1.
(§2) Noncompartmental Pharmacokinetics analysis was performed in Phoenix 64 Winnonlin version 8.1.

[3] = Dog PK study; format: in vivo, beagle dogs
Method: The pharmacokinetics of metopimazine (parent) and metopimazine acid (metabolite) were evaluated in three male, beagle dogs following a single oral dose of 10 mg/kg metopimazine (free base). The dogs were obtained from Marshall BioResources (North Rose, NY). Animals were weighed prior to each dose administration for the purpose of dose calculation. Metopimazine was administered in size 13 gelatin capsules. Whole venous blood samples of approximately 1.0 mL were collected from a peripheral vein of all animals for determination of metopimazine and metopimazine acid. Samples were collected at the following timepoints: 0.25, 0.5, 1, 2, 4, 8, 12, and 24 hours after test article administration. All animals were sampled at each timepoint. Samples were collected in tubes containing K2EDTA and placed on ice until processed for plasma by centrifugation under refrigeration for at least ten minutes at 3000 rpm. After centrifugation, supernatant was removed and stored frozen in a −70° C. freezer until analyzed by LC-MS/MS.
as §1, §2

[4] = tested on: other CYP enzymes; assay: Incubation with the other recombinant CYP isoforms; format: in vitro ADME, human; settings: 1 μM MPZ, 60 min
Text: All other procedures were the same as described previously.

[5] = for Peak Area at Time 0 / Peak Area at Time 90 min: metopimazine incubation in human liver microsomes, full scan LC-MS
Method: For protein concentration optimization, MPZ at 1 μM was incubated with varying concentration of HLM proteins (0.1, 0.25, 0.5, and 1.0 mg/mL microsomal protein), 100 mM KPi buffer (pH 7.4). After pre-incubation for 3-5 minutes at 37° C., the reaction was initiated by the addition of NADPH (1 mM) for 60 minutes in triplicates.
For incubation time optimization, MPZ at 1 μM was incubated with pooled HLM (0.5 mg/mL microsomal protein) and 100 mM KPi buffer (pH 7.4). After pre-incubation for) for 3-5 minutes at 37° C., the reaction was initiated by the addition NADPH (1 mM) incubated for 0, 10, 20, 40, 60, and 90 minutes to determine the optimal incubation time (linear range). All metabolic reactions in this study were terminated by the addition of chilled organic solvent (acetonitrile:ethanol 90:10, v/v) containing internal standards, unless otherwise indicated.
LC separation conditions were developed for MPZ and its metabolites (MPZA and MPZS), 7 hydroxycoumarin, each metabolite of CYP probe substrate, benzydamine N oxide, and phthalazine. The LC MS/MS system consisted of a Shimadzu Nexera X2 LC-30 UPLC system (Shimadzu Corporation, Kyoto, Japan), and an API 4000 triple quadrupole mass spectrometer (SCIEX, Framingham, MA) was used for analysis. All analytes were analyzed using electrospray ionization (ESI) in positive ion mode except for 7-EC, which used negative ion mode. The LC-MS/MS system was controlled by Analyst software (version 1.6.1, SCIEX, Framingham, MA).
For each analytical method, a calibration curve was generated for the quantification of MPZ and its two metabolites (MPZA and MPZS). […] PAR was also used for all positive control compounds.
% parent remaining=(mean concentration or PAR at each sampling time point/mean concentration or PAR of time zero)×100

[6] = female, Sprague Dawley, rat, in vivo, po, 45 mg/kg
[7] = male, Sprague Dawley, rat, in vivo, po, 45 mg/kg
[8] = male, beagle, dog, in vivo, po, 10 mg/kg

| Compound | MPZ disappeared ([1]; human liver S9 1 mg/mL, 2.5 μM MPZ, NADPH, 60-minute incubation) | AUCinf [2, 6] [ng·h/mL] | Cmax [2, 6] [ng/mL] | Tmax [2, 6] [h] | AUCinf [2, 7] [ng·h/mL] | Cmax [2, 7] [ng/mL] | AUC(0-inf) [3, 8] [ng·h/mL] | Tmax [3, 8] [h] | contribution of other CYP enzymes to MPZ metabolism [4] | MPZ remaining ([5]; human, microsomes, 1 h, 1 μM, pH 7.4) [%] | Peak Area at Time 0 [5] | Peak Area at Time 90 min [5] | metabolites formed ([1]; human liver S9, 60-minute incubation) | AUC(0-inf) [2, 6] [ng·h/mL] | MPZA metabolite to parent ratio compared with humans ([2]; rats) | MPZA metabolite to parent ratio compared with humans ([3]; dogs) |
| --- | --- | --- | --- | --- | --- | --- | --- | --- | --- | --- | --- | --- | --- | --- | --- | --- |
| CS(=O)(=O)c1ccc2c(c1)N(CCCN1CCC(C(N)=O)CC1)c1ccccc1S2 [MPZ, metopimazine] | approximately 30% | 13800 | 1730 | 4 | 8160 | 1080 | 3190 | 0.833 | None of the other CYP enzymes appeared to have significant contribution | 37.2 | 2373 | 715 |  |  |  |  |
| CS(=O)(=O)c1ccc2c(c1)N(CCCN1CCC(C(=O)O)CC1)c1ccccc1S2 [MPZA, metopimazine acid] |  |  | 106 | 4 | 755 | 89 | 1030 |  |  |  | 0 | 208 | formed | 944 | particularly lower in rats | far lower in dogs |
